Measured values from article PMC9317327, “Functional Characterization, Antimicrobial Effects, and Potential Antibacterial Mechanisms of NpHM4, a Derived Peptide of Nautilus pompilius Hemocyanin” (Marine Drugs, 2022).
Converted amounts (≈) assume the structure as drawn. Like-named read-outs stand apart in the source and are kept apart here. Where a SMILES comes first, the peptide text is derived from it.

Columns and labels:
Format in all cases: cell-based
[1] = system: Bacillus subtilis ATCC 6051; settings: ATCC 6051, 2 h, pH 7.2
Protocol: (§1) The antimicrobial activity of the peptides was determined against Gram-negative bacteria, including V. alginolyticus (A056), E. coli (DH5α), and V. parahaemolyticus (2013V-1174), which were obtained from the South China Sea Institute of Oceanology, Chinese Academy of Sciences. The activity was also tested against the Gram-positive bacteria S. aureus ATCC 25923 and B. subtilis ATCC 6051. To assess the antimicrobial activities of the peptides, bacterial cells were cultured to the logarithmic growth phase and then diluted to 10^6–1.5 × 10^7 CFU/mL with PBS (0.01 M, pH 7.2). Equal volumes of serially diluted peptides, with concentrations ranging from 30 to 450 μM in PBS, and bacteria suspension were mixed and incubated at room temperature for 2 h, respectively. Then, 6 μL of each serially diluted mixture was plated on sterile 12-well agar plates, followed by incubation for 11 to 12 h, and the colonies were assessed to determine the MICs and MBCs. The MICs were expressed (in µM) as an [a]–[b] concentration interval, where [a] is the highest peptide concentration at which bacteria were growing and [b] is the lowest concentration that caused 100% growth inhibition. Cultures without peptides were employed as controls. All the tests were performed in triplicate and repeated three times.

Escherichia coli (DH5α) = system: Escherichia coli (DH5α)
Protocol: as §1

[2] = system: Staphylococcus aureus ATCC 25923; settings: ATCC 25923, 2 h, pH 7.2
Protocol: as §1

[3] = system: Vibrio alginolyticus (A056)
Protocol: as §1

[4] = system: Vibrio parahaemolyticus 2013V-1174; settings: 2 h, pH 7.2
Protocol: as §1

SMILES: CC[C@H](C)[C@H](NC(=O)CNC(=O)[C@H](Cc1c[nH]cn1)NC(=O)[C@H](CC(C)C)NC(=O)[C@H](CC(C)C)NC(=O)[C@H](Cc1ccccc1)NC(=O)CNC(=O)[C@H](C)NC(=O)[C@H](CCCNC(=N)N)NC(=O)[C@@H](NC(=O)[C@@H](N)CCCNC(=N)N)C(C)C)C(=O)N[C@@H](CCCCN)C(=O)N[C@@H](CCCNC(=N)N)C(=O)N[C@@H](CO)C(=O)N[C@@H](C)C(=O)O [NpHM3] (H-RVRAGFLLHGIKRSA-OH)
- MBC [1]: >60 µM
- MIC [1]: >60 µM
- MBC (Escherichia coli (DH5α); DH5α, 2 h, pH 7.2): >60 µM
- MIC (Escherichia coli (DH5α); DH5α, 2 h, pH 7.2): 15 to 50 µM
- MBC [2]: >60 µM
- MIC [2]: >60 µM
- MBC ([3]; 2 h, pH 7.2): >150 µM
- MIC ([3]; 2 h, pH 7.2): 30 to 75 µM
- MBC [4]: >60 µM
- MIC [4]: 15 to 60 µM

SMILES: CC[C@H](C)[C@H](NC(=O)CNC(=O)[C@H](Cc1c[nH]cn1)NC(=O)[C@H](CC(C)C)NC(=O)[C@H](CC(C)C)NC(=O)[C@H](Cc1ccccc1)NC(=O)CNC(=O)[C@H](C)NC(=O)[C@H](Cc1ccccc1)NC(=O)[C@@H](NC(=O)[C@@H](N)CCCNC(=N)N)[C@@H](C)CC)C(=O)NCC(=O)N[C@@H](CCC(N)=O)C(=O)N[C@@H](CO)C(=O)N[C@@H](C)C(=O)O [NpHN6] (H-RIFAGFLLHGIGQSA-OH)
- MBC (Escherichia coli (DH5α); DH5α, 2 h, pH 7.2): >500 µM
- MIC (Escherichia coli (DH5α); DH5α, 2 h, pH 7.2): 250 to 500 µM
- MIC ([3]; 2 h, pH 7.2): 100 to 300 µM

SMILES: CC[C@H](C)[C@H](NC(=O)CNC(=O)[C@H](Cc1c[nH]cn1)NC(=O)[C@H](CCCNC(=N)N)NC(=O)[C@H](CC(C)C)NC(=O)[C@H](Cc1ccccc1)NC(=O)CNC(=O)[C@H](C)NC(=O)[C@H](Cc1ccccc1)NC(=O)[C@@H](NC(=O)[C@@H](N)CCCNC(=N)N)C(C)C)C(=O)N[C@@H](CCCCN)C(=O)N[C@@H](CCCNC(=N)N)C(=O)N[C@@H](CO)C(=O)N[C@@H](C)C(=O)O [NpHM1] (H-RVFAGFLRHGIKRSA-OH)
- MBC [1]: >60 µM
- MIC [1]: >60 µM
- MBC (Escherichia coli (DH5α); DH5α, 2 h, pH 7.2): >60 µM
- MIC (Escherichia coli (DH5α); DH5α, 2 h, pH 7.2): 15 to 60 µM
- MBC [2]: >60 µM
- MIC [2]: >60 µM
- MBC ([3]; 2 h, pH 7.2): >150 µM
- MIC ([3]; 2 h, pH 7.2): 50 to 150 µM
- MBC [4]: >60 µM
- MIC [4]: 15 to 60 µM

SMILES: CC[C@H](C)[C@H](NC(=O)[C@H](CCCNC(=N)N)NC(=O)[C@@H](NC(=O)[C@H](CC(N)=O)NC(=O)[C@H](C)NC(=O)[C@H](CO)NC(=O)[C@H](C)NC(=O)[C@H](CCC(N)=O)NC(=O)[C@@H](NC(=O)CNC(=O)[C@H](Cc1c[nH]cn1)NC(=O)[C@H](CC(C)C)NC(=O)[C@H](CC(C)C)NC(=O)[C@H](Cc1ccccc1)NC(=O)CN)[C@@H](C)CC)C(C)C)C(=O)O [NpHN4] (H-GFLLHGIQASANVRI-OH)
- MBC (Escherichia coli (DH5α); DH5α, 2 h, pH 7.2): >600 µM
- MIC (Escherichia coli (DH5α); DH5α, 2 h, pH 7.2): 200 to 600 µM
- MBC ([3]; 2 h, pH 7.2): >300 µM
- MIC ([3]; 2 h, pH 7.2): 100 to 300 µM

SMILES: CSCC[C@H](NC(=O)[C@H](Cc1ccccc1)NC(=O)CNC(=O)[C@H](C)NC(=O)[C@H](Cc1ccccc1)NC(=O)[C@@H](N)C(C)C)C(=O)N[C@@H](CC(C)C)C(=O)N[C@@H](Cc1c[nH]cn1)C(=O)NCC(=O)N[C@@H](Cc1ccccc1)C(=O)N[C@@H](CCCCN)C(=O)N[C@@H](CCCCN)C(=O)N[C@@H](CO)C(=O)N[C@@H](C)C(=O)N[C@@H](CC(C)C)C(=O)N[C@H](C(=O)O)C(C)C [NpHN1] (H-VFAGFMLHGFKKSALV-OH)
- MBC (Escherichia coli (DH5α); DH5α, 2 h, pH 7.2): >450 µM
- MIC (Escherichia coli (DH5α); DH5α, 2 h, pH 7.2): 250 to 450 µM
- MBC ([3]; 2 h, pH 7.2): >260 µM
- MIC ([3]; 2 h, pH 7.2): 50 to 260 µM

SMILES: CC[C@H](C)[C@H](NC(=O)CNC(=O)[C@H](Cc1c[nH]cn1)NC(=O)[C@H](CCCNC(=N)N)NC(=O)[C@H](CC(C)C)NC(=O)[C@H](Cc1ccccc1)NC(=O)CNC(=O)[C@H](C)NC(=O)[C@H](CCCNC(=N)N)NC(=O)[C@@H](NC(=O)[C@@H](N)CCCNC(=N)N)C(C)C)C(=O)N[C@@H](CCCCN)C(=O)N[C@@H](CCCNC(=N)N)C(=O)N[C@@H](CO)C(=O)N[C@@H](CCCNC(=N)N)C(=O)O [NpHM7] (H-RVRAGFLRHGIKRSR-OH)
- MBC [1]: >150 µM
- MIC [1]: >150 µM
- MBC (Escherichia coli (DH5α); DH5α, 2 h, pH 7.2): >150 µM
- MIC (Escherichia coli (DH5α); DH5α, 2 h, pH 7.2): >150 µM
- MBC [2]: >150 µM
- MIC [2]: >150 µM
- MBC ([3]; 2 h, pH 7.2): >150 µM
- MIC ([3]; 2 h, pH 7.2): >150 µM
- MBC [4]: >150 µM
- MIC [4]: >150 µM

SMILES: CC[C@H](C)[C@H](NC(=O)CNC(=O)[C@H](CO)NC(=O)[C@H](CC(C)C)NC(=O)[C@H](CCCNC(=N)N)NC(=O)[C@H](Cc1ccccc1)NC(=O)[C@H](CO)NC(=O)[C@H](C)NC(=O)[C@@H](N)Cc1ccccc1)C(=O)N[C@@H](Cc1c[nH]cn1)C(=O)N[C@H](C(=O)N[C@@H](CO)C(=O)N[C@@H](C)C(=O)N[C@@H](CC(N)=O)C(=O)N[C@H](C(=O)N[C@@H](CCCCN)C(=O)N[C@H](C(=O)N[C@@H](CC(C)C)C(=O)O)C(C)C)C(C)C)[C@@H](C)O [NpHN2] (H-FASFRLSGIHTSANVKVL-OH)
- MBC (Escherichia coli (DH5α); DH5α, 2 h, pH 7.2): >500 µM
- MIC (Escherichia coli (DH5α); DH5α, 2 h, pH 7.2): 200 to 500 µM
- MBC ([3]; 2 h, pH 7.2): >280 µM
- MIC ([3]; 2 h, pH 7.2): 100 to 280 µM

SMILES: CC[C@H](C)[C@H](NC(=O)[C@H](CS)NC(=O)[C@H](CS)NC(=O)[C@H](C)NC(=O)[C@H](Cc1ccc(O)cc1)NC(=O)[C@H](CCCNC(=N)N)NC(=O)[C@H](Cc1c[nH]cn1)NC(=O)[C@H](CC(C)C)NC(=O)[C@H](C)NC(=O)[C@@H](N)CCCCN)C(=O)N[C@@H](Cc1c[nH]cn1)C(=O)NCC(=O)N[C@@H](CCSC)C(=O)N[C@@H](C)C(=O)N[C@H](C(=O)O)[C@@H](C)O [NpHN3] (H-KALHRYACCIHGMAT-OH)
- MBC (Escherichia coli (DH5α); DH5α, 2 h, pH 7.2): >450 µM
- MIC (Escherichia coli (DH5α); DH5α, 2 h, pH 7.2): 250 to 450 µM
- MBC ([3]; 2 h, pH 7.2): >250 µM
- MIC ([3]; 2 h, pH 7.2): 50 to 250 µM

SMILES: CC[C@H](C)[C@H](NC(=O)CNC(=O)[C@H](Cc1c[nH]cn1)NC(=O)[C@H](CC(C)C)NC(=O)[C@H](CC(C)C)NC(=O)[C@H](Cc1ccccc1)NC(=O)CNC(=O)[C@H](C)NC(=O)[C@H](Cc1ccccc1)NC(=O)[C@@H](NC(=O)[C@@H](N)CCCNC(=N)N)C(C)C)C(=O)N[C@@H](CCCCN)C(=O)N[C@@H](CCCNC(=N)N)C(=O)N[C@@H](CO)C(=O)N[C@@H](CCCNC(=N)N)C(=O)O [NpHM2] (H-RVFAGFLLHGIKRSR-OH)
- MIC (Escherichia coli (DH5α); DH5α, 2 h, pH 7.2): 30 to 60 µM
- MBC ([3]; 2 h, pH 7.2): >75 µM
- MIC ([3]; 2 h, pH 7.2): 70 to 150 µM
- MBC [4]: >60 µM
- MIC [4]: 30 to 60 µM

SMILES: CC[C@H](C)[C@H](NC(=O)CNC(=O)[C@H](Cc1c[nH]cn1)NC(=O)[C@H](CC(C)C)NC(=O)[C@H](CC(C)C)NC(=O)[C@H](Cc1ccccc1)NC(=O)CNC(=O)[C@H](C)NC(=O)[C@H](Cc1ccccc1)NC(=O)[C@@H](NC(=O)[C@@H](N)CCCNC(=N)N)C(C)C)C(=O)N[C@@H](CCCCN)C(=O)N[C@@H](CCCNC(=N)N)C(=O)N[C@@H](CO)C(=O)N[C@@H](C)C(=O)O [NpHN5] (H-RVFAGFLLHGIKRSA-OH)
- MBC (Escherichia coli (DH5α); E. coli DH5α, 2 h in PBS pH 7.2 at room temperature, plated 11 to 12 h, triplicate, repeated three times): 450 µM (≈ 752 µg/mL)
- MIC (Escherichia coli (DH5α); E. coli DH5α, peptide mixed with bacteria (10^6–1.5 × 10^7 CFU/mL) in PBS 0.01 M pH 7.2, 2 h room temperature, plated on agar 11 to 12 h, interval [a]–[b]: [a] highest concentration with growth, [b] lowest with 100% growth inhibition, triplicate, repeated three times): 200 to 450 µM
- MIC ([3]; V. alginolyticus A056, 2 h in PBS pH 7.2 at room temperature, plated 11 to 12 h, interval [a]–[b]: [a] highest concentration with growth, [b] lowest with 100% growth inhibition, triplicate, repeated three times): 50 to 250 µM
- MBC ([3]; V. alginolyticus A056, 2 h in PBS pH 7.2 at room temperature, plated 11 to 12 h, triplicate, repeated three times): 250 µM (≈ 418 µg/mL)

SMILES: CC[C@H](C)[C@H](NC(=O)CNC(=O)[C@H](Cc1c[nH]cn1)NC(=O)[C@H](CC(C)C)NC(=O)[C@H](CC(C)C)NC(=O)[C@H](Cc1ccccc1)NC(=O)CNC(=O)[C@H](C)NC(=O)[C@H](CCCNC(=N)N)NC(=O)[C@@H](NC(=O)[C@@H](N)CCCNC(=N)N)C(C)C)C(=O)N[C@@H](CCCCN)C(=O)N[C@@H](CCCNC(=N)N)C(=O)N[C@@H](CO)C(=O)N[C@@H](CCCNC(=N)N)C(=O)O [NpHM5] (H-RVRAGFLLHGIKRSR-OH)
- MBC [1]: >50 µM
- MIC [1]: >50 µM
- MBC (Escherichia coli (DH5α); DH5α, 2 h, pH 7.2): >50 µM
- MIC (Escherichia coli (DH5α); DH5α, 2 h, pH 7.2): >50 µM
- MBC [2]: >50 µM
- MIC [2]: >50 µM
- MBC ([3]; 2 h, pH 7.2): >70 µM
- MIC ([3]; 2 h, pH 7.2): 15 to 70 µM
- MBC [4]: >70 µM
- MIC [4]: 15 to 70 µM
